Experiments:
FAAH Rat brain = target: T1, FAAH Rat brain (Rattus norvegicus, UniProt P97612); experiment: FAAH inhibitory activity, rat brain membranes, [14C]-AEA hydrolysis; format: biochemical; settings: Table 2; rat brain; read-out: FAAH Rat brain IC50
T1 construct: from tissue; host or cells: rat brain membranes
T1 sequence (P97612 1-579): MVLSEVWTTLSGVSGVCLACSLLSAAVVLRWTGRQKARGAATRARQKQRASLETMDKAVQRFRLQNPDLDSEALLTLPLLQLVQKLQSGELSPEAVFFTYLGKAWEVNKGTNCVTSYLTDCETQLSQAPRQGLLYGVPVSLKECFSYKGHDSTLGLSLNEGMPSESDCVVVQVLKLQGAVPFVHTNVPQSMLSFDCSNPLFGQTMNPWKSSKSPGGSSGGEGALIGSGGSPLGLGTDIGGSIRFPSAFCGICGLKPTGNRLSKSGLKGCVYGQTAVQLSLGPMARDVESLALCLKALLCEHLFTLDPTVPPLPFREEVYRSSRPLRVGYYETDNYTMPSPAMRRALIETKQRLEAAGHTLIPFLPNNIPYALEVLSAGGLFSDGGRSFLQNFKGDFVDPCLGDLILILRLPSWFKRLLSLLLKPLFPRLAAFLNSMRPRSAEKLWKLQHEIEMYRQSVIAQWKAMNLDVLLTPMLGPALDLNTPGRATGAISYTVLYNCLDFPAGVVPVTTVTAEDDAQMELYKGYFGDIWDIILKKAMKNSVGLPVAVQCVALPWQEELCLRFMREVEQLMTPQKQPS
Procedure: The compounds of Examples 12, and 19 are tested for FAAH inhibitory activity as follows:
Method 1: Membranes obtained from rat brain are incubated with 2 mM [^14C]-AEA, 30 min at 37° C. at pH values ranging from 9.00 to 10.00 in presence and absence of tested compounds in a final volume of […]. Incubation is stopped by extraction with CHCl3/MeOH (1:1) and the aqueous phases containing [^14C]-Ethanolamine produced by [^14C]-AEA hydrolysis are measured.

FP receptor = FP receptor (Homo sapiens, UniProt P43088); experiment: Prostanoid receptor antagonism (FLIPR), FP; format: cell-based; settings: Table 2
DP receptor = target: T2, DP receptor (Homo sapiens, UniProt Q13258); experiment: Prostanoid receptor antagonism (FLIPR), DP; format: cell-based; settings: Table 2
T2 sequence (Q13258 1-359): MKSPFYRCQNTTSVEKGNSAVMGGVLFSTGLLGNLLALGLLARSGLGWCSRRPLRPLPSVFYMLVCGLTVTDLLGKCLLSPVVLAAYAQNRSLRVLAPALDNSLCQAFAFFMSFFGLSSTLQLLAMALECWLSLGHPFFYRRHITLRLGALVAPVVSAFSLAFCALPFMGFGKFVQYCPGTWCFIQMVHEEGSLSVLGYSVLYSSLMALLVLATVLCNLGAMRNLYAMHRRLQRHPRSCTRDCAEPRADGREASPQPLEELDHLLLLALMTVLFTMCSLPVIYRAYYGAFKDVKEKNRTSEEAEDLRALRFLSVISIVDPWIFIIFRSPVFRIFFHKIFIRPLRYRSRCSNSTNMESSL

EP1 receptor = target: T3, EP1 receptor (Homo sapiens, UniProt P34995); experiment: Prostanoid receptor antagonism (FLIPR), EP1; format: cell-based; settings: Table 2
T3 sequence (P34995 1-402): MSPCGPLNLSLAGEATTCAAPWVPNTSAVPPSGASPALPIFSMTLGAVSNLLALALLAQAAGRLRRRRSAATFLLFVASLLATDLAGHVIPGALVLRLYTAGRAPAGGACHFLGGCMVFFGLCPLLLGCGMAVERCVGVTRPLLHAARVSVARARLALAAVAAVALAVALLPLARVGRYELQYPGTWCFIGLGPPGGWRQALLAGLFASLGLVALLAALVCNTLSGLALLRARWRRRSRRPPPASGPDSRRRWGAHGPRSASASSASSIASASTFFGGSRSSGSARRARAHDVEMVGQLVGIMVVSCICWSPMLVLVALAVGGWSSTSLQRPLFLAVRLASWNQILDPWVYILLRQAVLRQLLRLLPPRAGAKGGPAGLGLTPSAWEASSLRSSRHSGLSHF

EP2 receptor = EP2 receptor (Homo sapiens, UniProt P43116); experiment: Prostanoid receptor antagonism (FLIPR), EP2; format: cell-based; settings: Table 2, NA = inactive
EP3 receptor = target: T4, EP3 receptor (Homo sapiens, UniProt P43115); experiment: Prostanoid receptor antagonism (FLIPR), EP3; format: cell-based; settings: Table 2
T4 sequence (P43115 1-390): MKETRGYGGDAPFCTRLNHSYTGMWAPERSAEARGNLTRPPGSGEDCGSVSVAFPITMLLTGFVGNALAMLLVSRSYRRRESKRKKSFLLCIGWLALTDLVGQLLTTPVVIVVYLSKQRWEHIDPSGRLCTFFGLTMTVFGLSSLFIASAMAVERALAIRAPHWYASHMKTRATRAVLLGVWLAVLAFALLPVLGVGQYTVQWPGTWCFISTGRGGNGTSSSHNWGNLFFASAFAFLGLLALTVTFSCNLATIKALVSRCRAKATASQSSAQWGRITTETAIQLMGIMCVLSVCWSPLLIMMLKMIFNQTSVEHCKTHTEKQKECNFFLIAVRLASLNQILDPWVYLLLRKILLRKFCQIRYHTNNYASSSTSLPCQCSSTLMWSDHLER

EP4 receptor = EP4 receptor (Homo sapiens, UniProt P35408); experiment: Prostanoid receptor antagonism (FLIPR), EP4; format: cell-based; settings: Table 2
IP receptor = IP receptor (Homo sapiens, UniProt P43119); experiment: Prostanoid receptor antagonism (FLIPR), IP; format: cell-based; settings: Table 2, NA = inactive
TP receptor = target: T5, TP receptor (Homo sapiens, UniProt P21731); experiment: Prostanoid receptor antagonism (FLIPR), TP; format: cell-based; settings: Table 2
T5 sequence (P21731 1-343): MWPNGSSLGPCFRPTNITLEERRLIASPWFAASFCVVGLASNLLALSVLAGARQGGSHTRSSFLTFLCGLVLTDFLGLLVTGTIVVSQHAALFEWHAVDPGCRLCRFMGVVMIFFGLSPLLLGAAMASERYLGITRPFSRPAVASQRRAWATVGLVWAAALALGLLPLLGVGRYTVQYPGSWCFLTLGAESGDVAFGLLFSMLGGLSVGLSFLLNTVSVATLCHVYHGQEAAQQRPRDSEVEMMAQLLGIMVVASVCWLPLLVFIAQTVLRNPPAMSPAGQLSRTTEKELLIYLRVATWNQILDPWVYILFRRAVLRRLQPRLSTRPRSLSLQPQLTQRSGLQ

Chain of FP receptor (P43088 whole entry): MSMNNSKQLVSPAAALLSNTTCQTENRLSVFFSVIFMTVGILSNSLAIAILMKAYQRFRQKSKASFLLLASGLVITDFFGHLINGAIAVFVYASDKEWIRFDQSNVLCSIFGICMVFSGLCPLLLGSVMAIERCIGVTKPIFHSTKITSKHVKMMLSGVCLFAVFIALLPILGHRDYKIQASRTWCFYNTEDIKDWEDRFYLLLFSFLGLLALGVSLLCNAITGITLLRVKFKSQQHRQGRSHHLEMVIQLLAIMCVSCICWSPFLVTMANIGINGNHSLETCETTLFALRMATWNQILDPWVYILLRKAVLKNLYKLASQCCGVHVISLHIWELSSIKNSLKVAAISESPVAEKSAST
Chain of EP4 receptor (P35408 whole entry): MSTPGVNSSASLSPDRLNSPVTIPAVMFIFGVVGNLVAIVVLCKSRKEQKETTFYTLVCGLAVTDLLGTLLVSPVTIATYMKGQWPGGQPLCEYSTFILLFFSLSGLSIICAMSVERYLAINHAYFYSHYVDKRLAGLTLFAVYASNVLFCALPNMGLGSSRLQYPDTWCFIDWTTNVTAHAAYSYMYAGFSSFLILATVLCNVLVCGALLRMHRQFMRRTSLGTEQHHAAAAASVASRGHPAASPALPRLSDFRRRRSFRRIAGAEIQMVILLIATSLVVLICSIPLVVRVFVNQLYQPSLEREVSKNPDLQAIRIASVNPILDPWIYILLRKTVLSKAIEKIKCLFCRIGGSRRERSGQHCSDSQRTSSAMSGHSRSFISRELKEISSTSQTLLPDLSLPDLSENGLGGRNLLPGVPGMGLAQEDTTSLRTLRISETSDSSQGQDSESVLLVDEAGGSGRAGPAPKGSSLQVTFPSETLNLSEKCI
Chain of IP receptor (P43119 whole entry): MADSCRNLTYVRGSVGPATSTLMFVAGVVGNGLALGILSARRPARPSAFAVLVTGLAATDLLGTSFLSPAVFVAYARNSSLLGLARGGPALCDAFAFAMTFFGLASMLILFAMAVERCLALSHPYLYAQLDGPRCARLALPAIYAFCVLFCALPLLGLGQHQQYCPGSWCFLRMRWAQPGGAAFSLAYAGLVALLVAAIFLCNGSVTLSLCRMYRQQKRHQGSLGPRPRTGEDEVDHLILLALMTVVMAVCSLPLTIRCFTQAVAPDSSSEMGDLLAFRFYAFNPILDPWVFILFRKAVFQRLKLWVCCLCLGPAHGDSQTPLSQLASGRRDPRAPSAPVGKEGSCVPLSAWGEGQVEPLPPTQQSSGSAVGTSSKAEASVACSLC
Chain of EP2 receptor (P43116 whole entry): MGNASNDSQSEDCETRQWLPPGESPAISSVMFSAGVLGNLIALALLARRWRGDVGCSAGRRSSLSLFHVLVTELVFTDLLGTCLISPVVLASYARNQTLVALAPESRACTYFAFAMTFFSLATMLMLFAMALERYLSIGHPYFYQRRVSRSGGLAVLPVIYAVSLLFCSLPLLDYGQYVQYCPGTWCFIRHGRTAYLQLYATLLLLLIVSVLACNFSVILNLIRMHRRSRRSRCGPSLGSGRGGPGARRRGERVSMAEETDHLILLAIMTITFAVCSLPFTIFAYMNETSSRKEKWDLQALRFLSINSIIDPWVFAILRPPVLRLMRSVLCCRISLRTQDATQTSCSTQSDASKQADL

Question: With `CCS(=O)(=O)NC(=O)CCc1ccc(OC)cc1CN1CCC[C@H]1c1nc(C(=O)NCCCCC2CCCCC2)co1` [Example 12l, (S)—N-(4-cyclohexylbutyl)-2-(1-(5-methoxy-2-(3-oxo-3-(ethylsulfonamido)propyl)benzyl)pyrrolidin-2-yl)oxazole-4-carboxamide] as the compound, how does the IC50 (FAAH Rat brain) read?
Answer: 240 nM

Question: What about the Kb (FP receptor) of the same compound?
Answer: 1600 nM

Question: And the Kb (DP receptor)?
Answer: 40 nM

Question: What about the Kb (EP1 receptor) of the same compound?
Answer: 180 nM

Question: And the Kb (EP2 receptor)?
Answer: 1800 nM

Question: And the Kb (EP3 receptor)?
Answer: 910 nM

Question: What about the Kb (EP4 receptor) of the same compound?
Answer: 160 nM

Question: What about the Kb (IP receptor) of the same compound?
Answer: 6900 nM

Question: What about the Kb (TP receptor) of the same compound?
Answer: 11 nM
